Assay results reported in PubChem BioAssay (NCI).
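Where inhibition never reached the appropriate level, the endpoint shown equals the highest concentration tested. Otherwise, values were interpolated linearly from a five-concentration, 48-hour dose response in 96-well plates. At the GI50, growth is halved. Definition used: TGI = concentration required for complete inhibition of growth.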

Tests used:
Assay in all cases: inhibition of tumour cell growth, NCI panel, 48 h
SF-539 CNS = system: SF-539 CNS
UACC-257 melanoma = system: UACC-257 melanoma
HOP-62 NSCLC = system: HOP-62 NSCLC
A549 NSCLC = system: A549 NSCLC
OVCAR-4 ovarian = system: OVCAR-4 ovarian
M14 melanoma = system: M14 melanoma
HCC-2998 colon = system: HCC-2998 colon
SK-MEL-5 melanoma = system: SK-MEL-5 melanoma
ACHN renal = system: ACHN renal
SK-MEL-2 melanoma = system: SK-MEL-2 melanoma

| Structure (SMILES) | GI50 (SF-539 CNS) [µM] | TGI (SF-539 CNS) [µM] | GI50 (UACC-257 melanoma) [µM] | TGI (UACC-257 melanoma) [µM] | GI50 (HOP-62 NSCLC) [µM] | TGI (HOP-62 NSCLC) [µM] | GI50 (A549 NSCLC) [µM] | TGI (A549 NSCLC) [µM] | GI50 (OVCAR-4 ovarian) [µM] | TGI (OVCAR-4 ovarian) [µM] | GI50 (M14 melanoma) [µM] | TGI (M14 melanoma) [µM] | GI50 (HCC-2998 colon) [µM] | TGI (HCC-2998 colon) [µM] | GI50 (SK-MEL-5 melanoma) [µM] | TGI (SK-MEL-5 melanoma) [µM] | GI50 (ACHN renal) [µM] | TGI (ACHN renal) [µM] | TGI (SK-MEL-2 melanoma) [µM] | GI50 (SK-MEL-2 melanoma) [µM] |
| --- | --- | --- | --- | --- | --- | --- | --- | --- | --- | --- | --- | --- | --- | --- | --- | --- | --- | --- | --- | --- |
| COc1cc(NC(=O)NCc2ccco2)ccc1-c1ccc(NC(=O)NCc2ccco2)cc1OC | 0.663 | 2.62 | 2.72 | > 100 | 1.94 | 11.3 | 1.74 | 28.3 | 1.47 | 3.71 | 3.2 | 38.2 | 7.97 | > 100 | 0.93 | 21.4 | 2.84 | > 100 |  |  |
| COc1ccc(Cn2cc3c(c2-c2cc(OC)c(OC)c(OC)c2)CCc2cnoc2-3)cc1N | 0.0344 | > 100 | > 23.1 | > 100 | 0.0521 | > 100 | 0.0821 | > 100 | 0.103 | > 100 | 0.0507 | > 100 | 0.0882 | > 42 | 0.0325 | 1.24 | 0.0731 | > 100 |  |  |
| CCC1(NC(=O)c2cc(F)c(F)c(F)c2F)C(=O)NC(=O)N(C(C)C)C1=O (stereo not drawn) | > 100 | > 100 | 32.1 | > 100 | 58 | > 100 | 50.7 | > 100 | > 100 | > 100 | 10.3 | 34.6 | 1.94 | 3.97 | 16.8 | 33 | 73.5 | > 100 |  |  |
| CCOC(=O)N1C(c2ccccc2)C=CC(c2ccccc2)N1C(=O)OCC (stereo not drawn) |  | > 100 |  | > 100 |  | > 100 |  | > 100 |  | > 100 |  |  |  |  |  | > 100 |  | > 100 | > 100 |  |
| COc1ccc2c(CCNC(=O)/C=C/c3ccccc3)c(C(C)=O)[nH]c2c1[N+](=O)[O-] |  | 61 |  | > 100 |  | 76.2 |  | > 100 |  | > 100 |  | > 100 |  | > 100 |  |  |  | > 100 | > 100 |  |
| Fc1ccc2c(c1)C1=C(CO2)C(c2ccc(Cl)cc2)NC(=S)N1 (stereo not drawn) | 23 | 44.1 | 29.4 | 95.3 |  |  | 33.2 | > 100 | 51.9 | > 100 | 24 | 57.5 |  |  | 19.2 | 49.5 | 37.4 | > 100 | 46.9 | 24.3 |
| NCc1c(C(N)=O)ncn1Cc1ccccc1 |  | > 100 |  | > 100 |  | > 100 |  | > 100 |  | > 100 |  | > 100 |  | > 100 |  | > 100 |  | > 100 |  |  |
| N#C/C(=C\c1c(-c2ccccc2)[nH]c2ccccc12)C(=O)c1ccccc1 | 6.03 | 43.9 | 10.9 | > 100 | 16.3 | > 100 | 7.55 | > 100 | 65.3 | > 100 | 4.78 | > 100 | 14.5 | > 100 |  |  | 7.16 | > 100 | > 100 | 35.2 |
| CC1CCCc2c1c1ccc3c(O)cccc3c1oc2=O (stereo not drawn) |  |  |  | > 100 |  | 54.1 |  | > 100 |  | 91.3 |  | > 100 |  | > 100 |  |  |  | > 100 | > 100 |  |
| O=C(NC1C2CC3CC(C2)CC1C3)/C(Cl)=C1/Sc2ccccc2NC1=O (stereo not drawn) |  | > 100 |  | > 100 |  | > 100 |  | > 100 |  | > 100 |  | > 100 |  | > 100 |  | > 100 |  | > 100 |  |  |
| Clc1cc(-c2ccccc2)nc2ccccc12 |  | > 100 |  | > 100 |  | > 100 |  | > 100 |  | 62.3 |  | > 100 |  |  |  | 33 |  | > 100 | 38 |  |
| COc1nc2c(nc(N)n2C2OCC(O)C(O)C2O)c(=O)n1C (stereo not drawn) |  | > 100 |  | > 100 |  | > 100 |  | > 100 |  | > 100 |  | > 100 |  | > 100 |  | > 100 |  | > 100 |  |  |
| COc1ccc2c(c1)c(-c1ccc(-c3cn(C)c4ccc(OC)cc34)[nH]1)cn2C | 1.92 | 3.96 | 13.7 | 38.7 | 10.1 | 33.5 | 4.04 | 17.6 | 1.94 | 4.01 | 3.97 | 20.3 |  |  | 4.2 | 14.4 | 1.91 | 3.54 | 22.2 | 4 |
| CCN(CC)c1ccc(N=C2C=C(Cl)C(=O)c3ncccc32)c(C)c1 |  | 28 |  | 7.29 |  | 25 |  | 48.5 |  | 18.3 |  | 8.31 |  |  |  | 11.3 |  | 11.1 | > 100 |  |
| O=C(O)c1ccccc1N=Nc1ccc2oc(=O)c(C(=O)Nc3ccccc3)cc2c1 |  | > 100 |  | 59.4 |  | 97.7 |  | > 100 |  |  |  | > 100 |  |  |  | 76.8 |  | > 100 |  |  |
| CN(C)CCCCn1ccc2c1C(=O)c1c(c(O)c3ccccc3c1O)C2=O |  |  | 15.5 | 29.5 | 15.8 | 31 | 18.9 | 36.8 | 19.6 | 43.1 | 2.78 | 8.7 |  |  |  |  | 14.8 | 27.9 |  |  |
| c1ccc(B2OCC(C3OB(c4ccccc4)OC4COB(c5ccccc5)OC43)O2)cc1 (stereo not drawn) |  | > 100 |  | > 100 |  | > 100 |  | > 100 |  | > 100 |  | > 100 |  |  |  | > 100 |  | > 100 | > 100 |  |
| CCn1c(=O)c2ccccc2n2c(=O)c3cc4ccccc4cc3nc12 |  | > 100 |  | > 100 |  | > 100 |  | > 100 |  |  |  | > 100 |  | > 100 |  | > 100 |  | > 100 | > 100 |  |
